Assay [1] has as its system B. cinerea. Nature of the assay: Semi-in planta gray mold assay on detached Nicotiana benthamiana leaves (drop inoculation). In kind it is in vivo, Botrytis cinerea. The conditions noted are these: for gray mold symptoms, drop inoculation assay: 3 and 6 μM.
In assay [2] the test system is Botrytis cinerea T-4. The conditions noted are these: Table 18.
Assay [3] relates to F. graminearum. In kind it is cell-based, Fusarium graminearum.
For assay [4], the system named is B. cinerea. In words: MIC antifungal assay in SFM culture media (with or without added salts). The assay is classed as cell-based, Botrytis cinerea.
Assay [5] has as its system Colletotrichum gloeosporioides. Nature of the assay: 96-well plate MIC assay with resazurin viability. In kind it is cell-based. The conditions noted are these: Table 19; unit not given (peptide concentrations in μM). For orientation: The colour change of resazurin is a common sign of viable cells or microbes.
Assay [6] relates to Cercospora sojina. In words: 96-well plate MIC assay with resazurin viability. In kind it is cell-based. The settings on record: Table 19; unit not given (peptide concentrations in μM).
Assay [7] concerns Alternaria alternata. Nature of the assay: 96-well plate MIC assay with resazurin viability. The assay is classed as cell-based. The conditions noted are these: Table 19; unit not given (peptide concentrations in μM).

In brackets after ≈: the same amount, converted by molar mass. Positions of bridges follow the written chain, without caps; N, C: chain ends. Non-standard residues stand in square brackets, D forms with d. Residues, ends and D or L forms follow the SMILES beside them. No end group written: not given here. Dab = NCC[C@H](N)C(=O)O Bounds are passed on as bounds.

`CC[C@H](C)[C@H](NC(=O)[C@H](CCCNC(=N)N)NC(=O)[C@H](CS)NC(=O)[C@H](CCCNC(=N)N)NC(=O)CNC(=O)[C@@H](N)CO)C(=O)N[C@@H](CC(C)C)C(=O)N[C@@H](Cc1ccccc1)C(=O)N[C@@H](CCCNC(=N)N)C(=O)N[C@@H](CS)C(=O)N[C@@H](Cc1ccccc1)C(=O)N[C@@H](CS)C(=O)N[C@H](C(=O)N[C@@H](CCCCN)C(=O)N[C@@H](CC(N)=O)C(=O)N[C@@H](CS)C(N)=O)[C@@H](C)O` [GMA1C_V1] (H-SGRCRILFRCFCTKNC-NH2; N-terminus assumed): in assay [1], the “gray mold symptoms, drop inoculation assay” value is “failed to reduce disease symptoms”.
For `CC[C@H](C)[C@@H]1NC(=O)[C@H](CCCNC(=N)N)NC(=O)[C@@H](NC(=O)[C@H](CCCNC(=N)N)NC(=O)CNC(=O)[C@@H](N)CO)CSSC[C@@H](C(N)=O)NC(=O)[C@H](CC(N)=O)NC(=O)[C@H](CCCCN)NC(=O)[C@H]([C@@H](C)O)NC(=O)[C@H](Cc2c[nH]c3ccccc23)NC(=O)[C@H](Cc2ccccc2)NC(=O)[C@H](Cc2c[nH]c3ccccc23)NC(=O)[C@H](CCCNC(=N)N)NC(=O)[C@H](Cc2ccccc2)NC(=O)[C@H](CC(C)C)NC1=O` [GMA1C_V2] (H-SGRCRILFRWFWTKNC-NH2; disulfide 4-16; N-terminus assumed), the “gray mold symptoms, drop inoculation assay, comparison within the peptide family” value in assay [1] (1.5 μM) is recorded as “more effective”. In assay [1], the “gray mold symptoms, drop inoculation assay” value was “completely abrogated gray mold symptoms”. For the same compound, in assay [2], the “MIC (μM) (SFM + 2 mM CaCl2)” value is 3 µM, the “MIC (μM) (SFM + 100 mM KCl)” value was >12 µM and the “MIC (μM) (SFM + 100 mM NaCl)” value worked out at 3 µM.
For `CC[C@H](C)[C@@H]1NC(=O)[C@H](CCCNC(=N)N)NC(=O)[C@@H](NC(=O)[C@H](CCCNC(=N)N)NC(=O)CNC(=O)[C@@H](N)CO)CSSC[C@@H](C(N)=O)NC(=O)[C@H](CC(N)=O)NC(=O)[C@H](CCCCN)NC(=O)[C@H]([C@@H](C)O)NC(=O)[C@H](Cc2ccccc2)NC(=O)[C@H](Cc2ccc(O)cc2)NC(=O)[C@H](Cc2c[nH]c3ccccc23)NC(=O)[C@H](CCCNC(=N)N)NC(=O)[C@H](Cc2ccccc2)NC(=O)[C@H](CC(C)C)NC1=O` [GMA1C_V3] (H-SGRCRILFRWYFTKNC-NH2; disulfide 4-16; N-terminus assumed), in assay [2], the “MIC (μM) SFM” value was 1.5 µM (≈ 3.07 µg/mL), the “MIC (μM) (SFM + 2 mM CaCl2)” value is 6 µM, the “MIC (μM) (SFM + 100 mM KCl)” value was >12 µM and the “MIC (μM) (SFM + 100 mM NaCl)” value was found to be 3 µM.
As for `C[C@@H](O)[C@H](NC(=O)[C@H](CS)NC(=O)[C@H](Cc1ccccc1)NC(=O)[C@H](CS)NC(=O)[C@H](CCCNC(=N)N)NC(=O)[C@H](CCCNC(=N)N)NC(=O)[C@H](CCCNC(=N)N)NC(=O)[C@H](Cc1ccccc1)NC(=O)CNC(=O)[C@H](CCCNC(=N)N)NC(=O)[C@H](CS)NC(=O)[C@H](CCCNC(=N)N)NC(=O)CN)C(=O)N[C@H](C(=O)N[C@@H](Cc1c[nH]cn1)C(=O)N[C@@H](CS)C(N)=O)[C@@H](C)O` [GMA4AC, reference compound] (H-GRCRGFRRRCFCTTHC-NH2), in assay [2], the “MIC (μM) SFM” value stood at 3 µM (≈ 5.88 µg/mL). For the same compound, the “MIC (μM) Fusarium graminearum” value in assay [3] stood at 6 µM (≈ 11.8 µg/mL). Further, the “MIC (μM) Botrytis cinerea” value in assay [4] (SFM, Table 9) is 6 µM.
As to `C[C@@H](O)[C@H](NC(=O)[C@H](CS)NC(=O)[C@H](Cc1ccccc1)NC(=O)[C@H](CS)NC(=O)[C@H](CCCNC(=N)N)NC(=O)[C@H](CCCNC(=N)N)NC(=O)[C@H](CCCNC(=N)N)NC(=O)[C@H](Cc1ccccc1)NC(=O)CNC(=O)[C@H](CCCNC(=N)N)NC(=O)[C@H](CS)NC(=O)[C@H](CCCNC(=N)N)NC(=O)CNC(=O)CN)C(=O)N[C@H](C(=O)N[C@@H](Cc1c[nH]cn1)C(=O)N[C@@H](CS)C(N)=O)[C@@H](C)O` [GMA4C_AC, reference compound] (H-GGRCRGFRRRCFCTTHC-NH2; N-terminus assumed), the “antifungal activity against B. cinerea in presence of cations” value in assay [4] (100 mM NaCl or 100 mM KCl) is recorded as “retain their antifungal activity”. Moreover, the “SFM + 2 mM CaCl2 MIC (μM)” value in assay [4] (B. cinerea, Table 4) is recorded as >6 (a few μM; in assay [4] (Table 10) it was >6 (a few μM.
Turning to `NCC[C@H](NC(=O)CNC(=O)[C@@H](N)Cc1ccccc1)C(=O)N[C@@H](CS)C(=O)N[C@@H](CCN)C(=O)NCC(=O)N[C@@H](Cc1ccccc1)C(=O)N[C@@H](CCN)C(=O)N[C@@H](CCN)C(=O)N[C@@H](CCN)C(=O)N[C@@H](CS)C(=O)N[C@@H](Cc1ccccc1)C(=O)N[C@@H](CS)C(=O)N[C@@H](Cc1c[nH]c2ccccc12)C(=O)N[C@@H](CCN)C(=O)N[C@@H](Cc1c[nH]c2ccccc12)C(=O)N[C@@H](CS)C(=O)O` [GMA4C_V5, FG(Dab)C(Dab)GF(Dab)(Dab)(Dab)CFCW(Dab)WC] (H-FG[Dab]C[Dab]GF[Dab][Dab][Dab]CFCW[Dab]WC-OH; N-terminus assumed), the “SFM + 2 mM CaCl2 MIC (μM)” value in assay [4] (B. cinerea, Table 4) was >6 (very μM; in assay [4] (Table 10), >6 (very μM.
Turning to `CC[C@H](C)[C@H](NC(=O)[C@H](CCCNC(=N)N)NC(=O)[C@@H](NC(=O)[C@H](Cc1c[nH]c2ccccc12)NC(=O)[C@H](Cc1ccccc1)NC(=O)[C@H](Cc1c[nH]c2ccccc12)NC(=O)[C@H](CCCNC(=N)N)NC(=O)[C@H](CCCNC(=N)N)NC(=O)[C@H](CCCNC(=N)N)NC(=O)[C@H](Cc1ccccc1)NC(=O)CNC(=O)[C@H](CCCCN)NC(=O)[C@H](CS)NC(=O)[C@H](CCCNC(=N)N)NC(=O)CNC(=O)CN)[C@@H](C)O)C(=O)N[C@@H](CS)C(N)=O` [GMA4C_V6A] (H-GGRCKGFRRRWFWTRIC-NH2; N-terminus assumed), the “antifungal activity relative to the wild-type GMA4C_AC control, B. cinerea” value in assay [4] (in vitro, low cationic conditions) is recorded as “four-fold increase”.
`C[C@H](NC(=O)CN)C(=O)N[C@@H](CS)C(=O)N[C@@H](Cc1c[nH]cn1)C(=O)N[C@@H](CCCNC(=N)N)C(=O)N[C@@H](CCC(N)=O)C(=O)NCC(=O)N[C@@H](Cc1ccccc1)C(=O)NCC(=O)N[C@@H](Cc1ccccc1)C(=O)N[C@@H](C)C(=O)N[C@@H](CS)C(=O)N[C@@H](Cc1ccccc1)C(=O)N[C@@H](CS)C(=O)N[C@@H](Cc1ccc(O)cc1)C(=O)N[C@@H](CCCCN)C(=O)N[C@@H](CCCCN)C(=O)N[C@@H](CS)C(N)=O` [GMA5CA_WT, reference compound] (H-GACHRQGFGFACFCYKKC-NH2; N-terminus assumed): the “MIC Colletotrichum gloeosporioides” value in assay [5] was >12. In addition, the “MIC Cercospora sojina” value in assay [6] was 12. In addition, the “MIC Alternaria alternata” value in assay [7] came to 6.
Turning to `CC(C)C[C@@H]1NC(=O)[C@@H](NC(=O)[C@H](C)NC(=O)CN)CSSC[C@@H](C(=O)N[C@@H](Cc2ccc(O)cc2)C(N)=O)NC(=O)[C@H](Cc2c[nH]cn2)NC(=O)[C@H](CCCNC(=N)N)NC(=O)[C@H](Cc2ccc(O)cc2)NC(=O)[C@H](Cc2ccc(O)cc2)NC(=O)[C@H](Cc2c[nH]c3ccccc23)NC(=O)[C@H](Cc2ccccc2)NC(=O)[C@H](Cc2c[nH]c3ccccc23)NC(=O)CNC(=O)[C@H](Cc2ccc(O)cc2)NC(=O)[C@H](Cc2c[nH]cn2)NC(=O)[C@H](CCCCN)NC(=O)[C@H](CO)NC(=O)[C@H](Cc2c[nH]cn2)NC(=O)[C@H](CCCNC(=N)N)NC(=O)[C@H](CC(N)=O)NC(=O)[C@H](CCCCN)NC1=O` [GMAOe1C_V3] (H-GACLKNRHSKHYGWFWYYRHCY-NH2; disulfide 3-21; N-terminus assumed), in assay [1] (1.5 μM), the “gray mold symptoms, drop inoculation assay, comparison within the peptide family” value is reported as “more effective”. In assay [2], the “MIC (μM) SFM” value is 1.5 µM (≈ 4.31 µg/mL), the “MIC (μM) (SFM + 2 mM CaCl2)” value lay in the range of 3 to 6 µM and the “MIC (μM) (SFM + 100 mM NaCl)” value lay within 2 to 3 µM.
Take `CC(C)C[C@@H]1NC(=O)[C@@H](NC(=O)[C@H](C)NC(=O)CN)CSSC[C@@H](C(=O)N[C@@H](Cc2ccc(O)cc2)C(N)=O)NC(=O)[C@H](Cc2c[nH]cn2)NC(=O)[C@H](CCCNC(=N)N)NC(=O)[C@H](Cc2ccc(O)cc2)NC(=O)[C@H](Cc2ccc(O)cc2)NC(=O)[C@H](Cc2c[nH]c3ccccc23)NC(=O)[C@H](Cc2ccccc2)NC(=O)[C@H](Cc2ccccc2)NC(=O)CNC(=O)[C@H](Cc2ccc(O)cc2)NC(=O)[C@H](Cc2c[nH]cn2)NC(=O)[C@H](CCCCN)NC(=O)[C@H](CO)NC(=O)[C@H](Cc2c[nH]cn2)NC(=O)[C@H](CCCNC(=N)N)NC(=O)[C@H](CC(N)=O)NC(=O)[C@H](CCCCN)NC1=O` [GMAOe1C_V4] (H-GACLKNRHSKHYGFFWYYRHCY-NH2; disulfide 3-21; N-terminus assumed): in assay [2], the “MIC (μM) SFM” value worked out at 1.5 µM (≈ 4.25 µg/mL) and the “MIC (μM) (SFM + 100 mM NaCl)” value worked out at 6 µM.
Turning to `CC(C)C[C@H](NC(=O)[C@H](CS)NC(=O)[C@H](C)NC(=O)CN)C(=O)N[C@@H](CCCCN)C(=O)N[C@@H](CC(N)=O)C(=O)N[C@@H](CCCNC(=N)N)C(=O)N[C@@H](Cc1c[nH]cn1)C(=O)N[C@@H](CO)C(=O)N[C@@H](CCCCN)C(=O)N[C@@H](Cc1c[nH]cn1)C(=O)N[C@@H](Cc1ccc(O)cc1)C(=O)NCC(=O)N[C@@H](CS)C(=O)N[C@@H](Cc1ccc(O)cc1)C(=O)N[C@@H](CS)C(=O)N[C@@H](Cc1ccc(O)cc1)C(=O)N[C@@H](Cc1ccc(O)cc1)C(=O)N[C@@H](CCCNC(=N)N)C(=O)N[C@@H](Cc1c[nH]cn1)C(=O)N[C@@H](CS)C(=O)N[C@@H](Cc1ccc(O)cc1)C(N)=O` [GMAOe1C_WT, reference compound] (H-GACLKNRHSKHYGCYCYYRHCY-NH2; N-terminus assumed), in assay [1] (detached N. benthamiana leaves, 1.5 μM, 3 μM and 6 μM, 48 h), the “reducing gray mold disease symptoms (lesion sizes)” value was “only effective at 6 μM”.
Take “GRCRGFRRRCFCTTHC-NH2 (cysteine pairing not given here) [GMA4AC_WT, reference compound]”: in assay [5], the “MIC Colletotrichum gloeosporioides” value is listed as >12. Further, the “MIC Cercospora sojina” value in assay [6] is reported as >12. For the same compound, the “MIC Alternaria alternata” value in assay [7] is given as >12.

Values taken from patent US20260209297A1, “ANTIMICROBIAL PEPTIDES AND MODIFICATIONS THEREOF” (priority 2022, published 2026).
